Data published in PMC1976805, “Preclinical pharmacokinetics of benznidazole” (British Journal of Cancer, 1984).
Read-outs that look alike come from different tables or passages of the source.

Tests used:
[1] = Penetration into EMT6 and KHT mouse tumours; assay type: in vivo; settings: for peak tumour level (s.e., n=5): 650 mg kg-1 i.p.; for tumour/whole plasma ratio (s.e., n=5) / steady-state concentration in tumour: KHT tumour; for steady-state concentration in tumour: multiple dose schedule
Text: Br. J. Cancer (1984), 50, 291-303 Preclinical pharmacokinetics of benznidazole P. Workman', R.A.S. White2, M.I. Walton', L.N. Owen2* & P.R. Twentyman' 1MRC Clinical Oncology and Radiotherapeutics Unit, MRC Centre, Hills Road, Cambridge CB2 2QH, and 2Department of Clinical Veterinary Medicine, University of Cambridge, Madingley Road, Cambridge CB3 OES, UK. […] We have investigated the detailed pharmacokinetics of benznidazole in mice, dogs and sheep to provide a data base for the estimation of doses required for chemosensitization in man. Pharmacokinetic behaviour was linear except at high doses in mice. Absorption was fairly rapid and bioavailability was complete following both i.p. administration in mice and oral administration in dogs. Elimination t4 values were longer than for MISO, being 90 min in mice, 4-5 h in sheep and 9-11 h in dogs. At doses giving linear kinetics, peak whole plasma concentrations per administered mgkg-1 were 0.75 jigml-1 for the i.p. route in mice and 1.8jugmlP' for the oral route in dogs. Though between 39 and 59% of plasma benznidazole was bound to protein, tissue penetration was generally good. Tissue/whole plasma ratios ranged from 59-99% for transplantable mouse tumours and from 14-70% for spontaneous dog neoplasms. Nervous tissue penetration was similar to that in tumours: brain/whole plasma ratios averaged between 61 and 76% in mice and 42% in dogs, while peripheral nerve/whole plasma ratios in dogs averaged 74%. Mean liver/whole plasma ratios were 42% and 71% in BALB/c and C3H/He mouse strains respectively. Only -5% of the administered dose was excreted unchanged in the urine, indicating the likelihood of extensive metabolism. […] Enhancement of CCNU response is likely to require circulating benznidazole concentrations of 10-30 pgml-1 and we predict that these will be obtained with oral doses of 6-20 mgkg- 1 in man. […] This enhancement, or chemosensitization, is usually greater than that seen in dose-limiting normal tissues, resulting in an improved therapeutic index. Because of the relatively high doses of MISO usually required for chemosensitization in mice (see above refs), and also because of its neurotoxicity in man (Dische et al., 1977), we have been interested in finding an improved chemosensitizer. […] The lipophilic ana- logue benznidazole (N-benzyl-(2-nitroimidazolyl) acetamide, Ro 07-1051; Radanil; Roche), the structure of which is shown in Figure 1, was selected for detailed study because of its ability to *Present address: Animal Health Trust, Small Animals Centre, Lanwades Park, Kennett, Newmarket, Suffolk CB8 7PN, UK. Correspondence: P. Workman. […] These findings have been confirmed independently by Siemann et al. (1983). Although benznidazole is used quite widely in South America to treat patients with the trypanosomal infection Chagas' disease or with mucotaneous Leishmaniasis (Barclay et al., 1978; Cerisola et al., 1978; Coura et al., 1978; Fava et al., 1978), apart from our preliminary studies (White et al., 1982) the only published data on its pharmaco- kinetics are for human plasma concentrations measured by polarography (Raaflub & Ziegler, 1979; Raaflub, 1980). Here we describe the pharmacokinetics of benznidazole in the mouse, sheep and dog, as determined by high-performance liquid chromatography (HPLC). […] The Macmillan Press Ltd., 1984 292 P. WORKMAN et al. particularly on plasma and tumour concentrations, have been used as a basis for the estimation of the benznidazole doses required in a Phase I trial of benznidazole plus CCNU, at present ongoing in our Unit. Materials and methods Animals and tumours Adult inbred male BALB/c mice were obtained from OLAC (Southern) Ltd. (Bicester, UK) and adult inbred C3H/He mice of both sexes from OLAC and our own breeding colony. Mice were housed in plastic cages on sawdust bedding made from soft white woods, and allowed laboratory chow and water ad lib. They were used at 20-35 g body wt.

[2] = Tissue penetration in dogs bearing spontaneous neoplasms; assay type: in vivo, dog; settings: for Kp: dog
Text: Br. J. Cancer (1984), 50, 291-303 Preclinical pharmacokinetics of benznidazole P. Workman', R.A.S. White2, M.I. Walton', L.N. Owen2* & P.R. Twentyman' 1MRC Clinical Oncology and Radiotherapeutics Unit, MRC Centre, Hills Road, Cambridge CB2 2QH, and 2Department of Clinical Veterinary Medicine, University of Cambridge, Madingley Road, Cambridge CB3 OES, UK. […] We have investigated the detailed pharmacokinetics of benznidazole in mice, dogs and sheep to provide a data base for the estimation of doses required for chemosensitization in man. Pharmacokinetic behaviour was linear except at high doses in mice. Absorption was fairly rapid and bioavailability was complete following both i.p. administration in mice and oral administration in dogs. Elimination t4 values were longer than for MISO, being 90 min in mice, 4-5 h in sheep and 9-11 h in dogs. At doses giving linear kinetics, peak whole plasma concentrations per administered mgkg-1 were 0.75 jigml-1 for the i.p. route in mice and 1.8jugmlP' for the oral route in dogs. Though between 39 and 59% of plasma benznidazole was bound to protein, tissue penetration was generally good. Tissue/whole plasma ratios ranged from 59-99% for transplantable mouse tumours and from 14-70% for spontaneous dog neoplasms. Nervous tissue penetration was similar to that in tumours: brain/whole plasma ratios averaged between 61 and 76% in mice and 42% in dogs, while peripheral nerve/whole plasma ratios in dogs averaged 74%. Mean liver/whole plasma ratios were 42% and 71% in BALB/c and C3H/He mouse strains respectively. Only -5% of the administered dose was excreted unchanged in the urine, indicating the likelihood of extensive metabolism. […] Enhancement of CCNU response is likely to require circulating benznidazole concentrations of 10-30 pgml-1 and we predict that these will be obtained with oral doses of 6-20 mgkg- 1 in man. […] This enhancement, or chemosensitization, is usually greater than that seen in dose-limiting normal tissues, resulting in an improved therapeutic index. Because of the relatively high doses of MISO usually required for chemosensitization in mice (see above refs), and also because of its neurotoxicity in man (Dische et al., 1977), we have been interested in finding an improved chemosensitizer. […] The lipophilic ana- logue benznidazole (N-benzyl-(2-nitroimidazolyl) acetamide, Ro 07-1051; Radanil; Roche), the structure of which is shown in Figure 1, was selected for detailed study because of its ability to *Present address: Animal Health Trust, Small Animals Centre, Lanwades Park, Kennett, Newmarket, Suffolk CB8 7PN, UK. Correspondence: P. Workman. […] These findings have been confirmed independently by Siemann et al. (1983). Although benznidazole is used quite widely in South America to treat patients with the trypanosomal infection Chagas' disease or with mucotaneous Leishmaniasis (Barclay et al., 1978; Cerisola et al., 1978; Coura et al., 1978; Fava et al., 1978), apart from our preliminary studies (White et al., 1982) the only published data on its pharmaco- kinetics are for human plasma concentrations measured by polarography (Raaflub & Ziegler, 1979; Raaflub, 1980). Here we describe the pharmacokinetics of benznidazole in the mouse, sheep and dog, as determined by high-performance liquid chromatography (HPLC). […]

Aqueous solubility = assay type: physicochemical
[3] = Maximum tolerated dose in mice; settings: male, mouse, in vivo, ip; BALB/c mice, i.p., highest dose used; read-out: maximum tolerated dose (about)
Text: (§1) Br. J. Cancer (1984), 50, 291-303 Preclinical pharmacokinetics of benznidazole P. Workman', R.A.S. White2, M.I. Walton', L.N. Owen2* & P.R. Twentyman' 1MRC Clinical Oncology and Radiotherapeutics Unit, MRC Centre, Hills Road, Cambridge CB2 2QH, and 2Department of Clinical Veterinary Medicine, University of Cambridge, Madingley Road, Cambridge CB3 OES, UK. […] We have investigated the detailed pharmacokinetics of benznidazole in mice, dogs and sheep to provide a data base for the estimation of doses required for chemosensitization in man. Pharmacokinetic behaviour was linear except at high doses in mice. Absorption was fairly rapid and bioavailability was complete following both i.p. administration in mice and oral administration in dogs. […] Although benznidazole is used quite widely in South America to treat patients with the trypanosomal infection Chagas' disease or with mucotaneous Leishmaniasis (Barclay et al., 1978; Cerisola et al., 1978; Coura et al., 1978; Fava et al., 1978), apart from our preliminary studies (White et al., 1982) the only published data on its pharmaco- kinetics are for human plasma concentrations measured by polarography (Raaflub & Ziegler, 1979; Raaflub, 1980). Here we describe the pharmacokinetics of benznidazole in the mouse, sheep and dog, as determined by high-performance liquid chromatography (HPLC). […]

plasma proteins = test: Plasma protein binding, summary over species; assay type: in vivo; settings: mouse, sheep, dog, range over species studied
Text: as §1

human plasma = settings: cited from earlier work

For `O=C(Cn1ccnc1[N+](=O)[O-])NCc1ccccc1` [benznidazole, N-benzyl-(2-nitroimidazolyl) acetamide], the “tumour/whole plasma ratio (% ± s.e.)” value ([1]; EMT6 i.m. leg, BALB/c, Exp 1 (c): 650 mg kg-1 i.p., 45-135 min, n=20) was 75 + 5%, the “tumour/whole plasma ratio (% ± s.e.)” value ([1]; EMT6 i.m. leg, BALB/c, Exp 2 (d): 650 mg kg-1 i.p., 45-135 min, n=20) was 74+6% and the “peak tumour level (s.e., n=5)” value ([1]; EMT6 i.m. leg, first experiment) was 130+7 µg g-1. For the same compound, the “peak tumour level (s.e., n=5)” value ([1]; EMT6 i.m. leg, second experiment) was 84+14 µg g-1, the “tumour/whole plasma ratio (% ± s.e.)” value ([1]; KHT i.m. leg, C3H/He, Exp 1 (e): 60 mg kg-1 i.p. priming + 15 hourly doses of 15 mg kg-1, 1-16 h, n=25) was 99+3% and the “tumour/whole plasma ratio (% ± s.e.)” value ([1]; KHT i.m. leg, C3H/He, Exp 2 (f): dosing as e omitting the dose at 1 h, 2-16 h, n=13) was 90+ 3%. For the same compound, the “tumour/whole plasma ratio (s.e., n=5)” value ([1]; 1 h after single i.p. dose of 78 mg kg-1) was 88+5%, the “tumour/whole plasma ratio (s.e., n=5)” value ([1]; 1 h after single i.p. dose of 260 mg kg-1) was 88+2% and the “steady-state concentration in tumour” value ([1]; first experiment) was 26 µg/g. For the same compound, the “steady-state concentration in tumour” value ([1]; second experiment) was 32 µg/g, the “range of mean plasma concentrations” value ([1]; Table II experiment a) was 49 to 99 µg/mL and the “range of mean plasma concentrations” value ([1]; Table II experiment b) was 77 to 121 µg/mL. For the same compound, the “range of mean plasma concentrations” value ([1]; Table II experiment c) was 100 to 130 µg/mL, the “range of mean plasma concentrations” value ([1]; Table II experiment d) was 74 to 133 µg/mL and the “range of mean plasma concentrations” value ([1]; Table II experiment e (multiple dose)) was 25 to 47 µg/mL. For the same compound, the “range of mean plasma concentrations” value ([1]; Table II experiment f (multiple dose)) was 12 to 29 µg/mL, the Kp ([1]; male, BALB/c, mouse, EMT6 flank tumour / whole plasma, EMT6 flank tumours, read-out: overall tissue/whole plasma ratio) was 0.69 and the Kp ([1]; male, mouse, tumour (EMT6, intradermal, intraperitoneal), EMT6 i.d. flank, BALB/c, Exp 1 (a): 650 mg kg-1 i.p. single dose (arachis oil), 45-135 min, n=16, read-out: tumour/whole plasma ratio (% ± s.e.)) was 0.59. The “peak tumour concentration that would be produced” value ([1]; mice, 13 mg kg-1 i.p.) was roughly 9 µg/g, the tumour concentration ([1]; mice, 78 mg kg-1 i.p., discussion summary) was 26 µg/g and the Kp ([1]; tumour (KHT and EMT6), transplantable mouse tumours (KHT and EMT6), read-out: tissue/whole plasma ratios, range) was 0.59 to 0.99. The Kp ([1]; tumour / whole plasma, transplantable mouse tumours, read-out: steady-state tumour/whole plasma ratio (about)) was roughly 0.9, the “tissue/whole plasma ratio, overall mean + s.e.” value ([2]; 24 neoplastic tissue samples (excluding cyst fluid)) was 50+3% and the “absolute neoplastic tissue concentration, overall mean+s.e.” value ([2]; 24 samples, 1.67-4.5 h, normalised to 12.5 mg kg-1 oral) was 5.6 +0.5 µg g-1. For the same compound, the Kp ([2]; liver/whole plasma, first of the two values obtained, read-out: liver/whole plasma ratio) was 0.14, the Kp ([2]; liver/whole plasma, second of the two values obtained, read-out: liver/whole plasma ratio) was 0.51 and the Kp ([2]; tumour (spontaneous neoplastic tissue), po, neoplastic tissues, 12.5 (one dog 25) mg kg-1 oral, 1.67-4.5 h, read-out: tissue/whole plasma ratios, range) was 0.14 to 0.7. For the same compound, the aqueous solubility (Aqueous solubility) was “low aqueous solubility”, the MTD [3] was roughly 832 mg/kg and the fraction unbound (plasma proteins) was 0.41 to 0.61. For the same compound, the “binding to plasma proteins” value (human plasma; ref Raaflub & Ziegler, 1979) was 44% and the “binding to plasma proteins” value (human plasma; ref Workman & Brown, 1981) was 58%.
